From patent US20210196779A1, “Compositions and Methods for Treating Steroid Hormone-Related Diseases or Disorders” (YALE UNIVERSITY, priority 2018, published 2021)

Columns and labels:
[1] = system: SGK1 mRNA (target gene of GR); assay: qRT-PCR of DEX induced SGK1 mRNA; assay type: cell-based; settings: 22RV1 or PC3 cells
From the text: FIGS. 5D-5E are graphs showing the effect of Y1830, RG (or the fraction comprising RG), and RGA (or the fraction comprising RGA) on the DEX induced glucocorticoid receptor mediated transcriptional response of 22RV1 and PC3 PSA-luciferase reporter cells. FIGS. 5F-5G are graphs showing the effect of Y1830 on SGK1 (target gene of GR) mRNA expression with or without DEX using qRT-PCR.
RNA was extracted from herb treated cells using the Roche High Pure RNA isolation kit. cDNA was then generated from RNA samples using a Bio-rad iScript Advanced cDNA synthesis kit for RT-qPCR. qPCR was performed using human NRF2, H01, NQO1 and β-actin primers (Table 1) and iTaq™ Universal SYBR® Green Supermix in a CFX PCR machine (Bio-rad). Relative mRNA expression was calculated based on the change of the threshold cycle relative to the internal control, β-actin, using a standard curve generated by purified PCR products.

MDAMB-231 cells = assay: Cell growth assay, MDAMB-231 breast cancer cells; assay type: cell-based; settings: 4 days
Procedure: MCF7, T47D, MDA-MB-453, MDA-MB-231 breast cancer cells were grown in corning T75 cell culture flask in RPMI1640 medium supplemented with 5% FBS, 50 μg/ml Kanamycin in a 37° C., 5% CO2 incubator.
20,000 cells in 1 ml of medium (phenol red free RPMI1640, 5% charcoal-dialysis FBS, 50 μg/ml Kanamyacin) were seeded per well of a 24-well plate and incubated in a 37° C. incubator with 5% CO2 overnight. Different concentrations of herbal extract were added to each well in order to have final concentrations from 50 μg/ml to 500 μg/ml. For prostate cancer cells, DHT (25 nM) was used to stimulate androgen receptor activity. For glucocorticoid receptor overexpressed LNCaP cells, dexamethasone (50 nM) was used to stimulate glucocorticoid receptor activity. For all breast cancer cells, E2 (10 nM) was used to stimulate ER activity. Control medium without any steroid hormone was used as a control setting. After 4 days of incubation, cells were fixed and stained for 2 h with 0.5% methylene blue in 50% ethanol, followed by washing with tap water to remove unbound dye. Plates were air dried and then cells were dissolved in 1% sarkosyl (sodium lauroyl sarcosinate) by shaking at room temperature for 3 h. Cell growth was quantified based on the amount of methylene blue adsorbed by the cells as measured by a spectrophotometer (Molecular Devices) at 595 nm. […]

Brd4 = assay: Western blot, MCF7 and 22RV1 cells, Brd4; assay type: cell-based; settings: MCF7 (with or without E2) or 22RV1 (with or without DHT), 24 h
Procedure: Western blot analysis was used to determine the protein expression using protein specific antibodies. β-actin or histone 3 was used to normalize protein loading.
Total cell lysis was conducted using 2×SDS sample buffer (62.5 mM Tris-HCl, 2% SDS, 10% glycerol, 50 mM DTT, and 0.05% bromophenol blue). The samples were sonicated for 10 s to shear DNA. Cell nuclei were isolated using Tris buffer saline with 0.4% NP40. Cell extracts were then electrophoresed through 10% SDS-polyacrylamide gels and transferred to 0.2 μm nitrocellulose membranes (Bio-Rad Laboratories, Hercules, Calif.) with a Miniprotein II transferring apparatus (Bio-Rad). The membranes were blocked and probed in TBS-T buffer (1×TBS buffer, 0.2% Tween 20) containing 5% non-fat milk. […] Enhanced chemiluminescence reagents (Perkin-Elmer Life Science Products, Boston, Mass.) were used to visualize the immunoreactive bands and the densities of protein bands were scanned analyzed using ImageJ software from the NIH.

[2] = target: T1, glucocorticoid receptor (GR) (Homo sapiens, UniProt P04150); assay: PSA-luciferase reporter assay, DEX induced, 22RV1 cells; assay type: cell-based; design: endogenous in cells; settings: 22RV1 PSA-luciferase reporter cells
Procedure: (§1) Reporter cells were treated with herbal extracts at 30, 100, 300, and 1000 μg/ml for 24 h in a 37° C.-CO2 incubator. DHT (25 nM) was used to stimulate androgen receptor activity. Dexamethasone (50 nM) was used to stimulate glucocorticoid receptor activity Cells were lysed using luciferase lysis buffer after which luciferase buffer with luciferin was added to generate luminescence. Luminescence was recorded using a luminescence microplate reader.

[3] = target: T1, glucocorticoid receptor (GR); assay: PSA-luciferase reporter assay, DEX induced, PC3 cells; assay type: cell-based; design: Western blot analysis for AR and GR protein expression in LNCaP, 22RV1 and PC3 cells; endogenous in cells; host or cells: PC3
Procedure: as §1

22RV1 tumor = assay: Inhibition of 22RV1 prostate cancer growth in nude mice; assay type: in vivo; settings: equivalent dose to Y1830 (2.2 mg/kg, PO, B.I.D.), 11 days
Procedure: 22RV1 prostate cancer cells 5×10^6 cells in 100 μl Matrigel were injected subcutaneously into 10 week old male NCR nude mice. When 22RV1 tumor reached 5 mm×5 mm, mice were orally fed with Y1830 (water extract, 500 mg/kg, PO, B.I.D, N5) and RGA (or the fraction comprising RGA) (equivalent dose to Y1830: 2.2 mg/kg, PO, B.I.D.) for 11 days. Tumor volume was estimated by using the formula length×width^2/2.
When tumors reached 5 mm×5 mm, Y1830 water extract (500 mg/kg, BID, PO) and RGA (or the fraction comprising RGA) at equivalent dose to Y1830 were used to treat animals for 11 days. […] Therefore, it is further concluded that compounds other than molecules in RGA containing fraction of Y1830 total extract may also have anti-tumor activity or prevent tumor to develop drug resistant.

T1 sequence (P04150 whole entry): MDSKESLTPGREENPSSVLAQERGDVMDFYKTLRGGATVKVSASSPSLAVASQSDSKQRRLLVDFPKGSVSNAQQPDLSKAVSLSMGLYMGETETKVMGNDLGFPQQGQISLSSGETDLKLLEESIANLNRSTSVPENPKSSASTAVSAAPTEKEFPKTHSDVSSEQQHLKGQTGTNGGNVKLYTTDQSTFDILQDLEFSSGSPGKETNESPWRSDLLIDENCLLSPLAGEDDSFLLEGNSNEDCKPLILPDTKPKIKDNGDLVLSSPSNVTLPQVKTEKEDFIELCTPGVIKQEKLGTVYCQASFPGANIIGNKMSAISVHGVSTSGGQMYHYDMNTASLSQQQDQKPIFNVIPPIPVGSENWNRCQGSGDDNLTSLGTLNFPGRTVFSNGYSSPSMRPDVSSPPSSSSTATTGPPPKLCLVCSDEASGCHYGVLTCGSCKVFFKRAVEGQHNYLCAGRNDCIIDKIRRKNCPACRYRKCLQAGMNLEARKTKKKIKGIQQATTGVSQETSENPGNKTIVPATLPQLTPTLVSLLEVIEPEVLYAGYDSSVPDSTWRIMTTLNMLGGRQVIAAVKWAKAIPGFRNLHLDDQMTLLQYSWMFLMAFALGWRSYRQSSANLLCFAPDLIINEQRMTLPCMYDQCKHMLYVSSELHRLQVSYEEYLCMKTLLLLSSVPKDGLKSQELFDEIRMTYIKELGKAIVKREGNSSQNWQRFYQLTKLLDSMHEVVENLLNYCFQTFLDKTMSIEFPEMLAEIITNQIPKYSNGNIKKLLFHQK

CC(=O)OCC1OC(Oc2cc3c(c(O)c2C)C(=O)c2ccc(O)cc2C3=O)C(OC2OC(C)C(O)C(O)C2O)C(O)C1O [RGA, 1,3,6-Trihydroxy-2-methyl-9,10-anthracenedione 3-O-[α-L-Rhamnopyranosyl-(1→2)-6-O-acetyl-β-D-glucopyranoside]]
inhibition of DEX induced SGK1 mRNA expression [1]: inhibited | inhibition of growth of triple negative MDAMB-231 cells (MDAMB-231 cells): inhibited the growth | Brd4 protein expression (Brd4): decreased | inhibitory effect on DEX induced transcriptional response [2]: inhibitory effect | inhibitory effect on DEX induced transcriptional response [3]: inhibitory effect | inhibition on 22RV1 tumor growth (22RV1 tumor): significant inhibition on 22RV1 tumor growth from day 2 to day 6
